Experiments:
plasma extravasation = assay: Plasma extravasation (Evans blue in bladder), IV bolus, wild-type mice; type: in vivo, wild-type (WT) C57/BL6 male mice; settings: for Evans blue (EB) in the bladder: controls 0.7927
From the text: In vivo experiments in both wild-type (WT) C57BL/6J mice and C1-inhibited knock out (C1 INH KO) mice measured pharmacodynamic efficacy by the ability of CFMQ to block plasma extravasation, which is causative to edema, the most important symptom requiring treatment in HAE subjects. This plasma extravasation model has been used extensively in the literature to investigate the efficacy of bradykinin receptor antagonists. (Han et al., “Increased vascular permeability in C1 inhibitor-deficient mice mediated by the bradykinin type 2 receptor,” J Clin Invest, 2002 April; 109(8): 1057-1063.)
The uptake and effective blocking of plasma extravasation of CFMQ was examined following IV (intravenous) bolus administration in wild-type (WT) C57/BL6 male mice (n=4/dose group). Mice received CFMQ (HGT3711) (2 μL/g) at 1.0 μg/kg, 100 μg/kg, and/or 6 mg/kg. Following CFMQ administration and prior to the terminal time point, mice received an IV injection of Evans blue (EB) dye (30 mg/kg) and were sacrificed. The bladder was removed, dried and weighed and extracted in formamide (1.0 mL). EB concentration in the formamide extract was determined spectrophotometrically and EB content was calculated as μg EB per milligram of tissue weight. Efficacy was determined by inhibiting the accumulation of EB in the bladder.
CFMQ doses of 0.001, 0.05, 0.1, 0.25, 0.5, 1.0, and or 3.0 mg/kg were administered as IV bolus injections to WT mice (n=8/dose group).

[1] = Pharmacokinetics, single oral gavage, Yucatan mini-pig; type: in vivo, female Yucatan Miniature Swine; settings: PO 10 mg/kg
Procedure: CFMQ (HGT3711) was administered to female Yucatan Miniature Swine (mini-pig; n=3) by a single oral gavage at 10 mg/kg (concentration 2 mg/mL) at a dose volume of […]. This study utilized the spray-dried dispersion (SDD) (50; 50 with polymer; HPMCAS) formulation of CFMQ (HGT3711) (see below). Blood samples were taken via jugular or other suitable vein puncture prior to administration and at 0.083 (5 min), 0.25 (15 min), 0.50 (30 min), 1, 2, 4, 8, 12 and 24 hours post dose. Plasma concentrations of CFMQ (HGT3711) were determined by LC-MS/MS.

[2] = In vitro microsomal stability, mouse; type: in vitro ADME; settings: Mouse (CD-1), Male
Procedure: In vitro metabolic stability studies were performed to determine hepatic stability in vivo. CFMQ was incubated in liver microsomal preparations from mouse, rat, dog, mini-pig, and humans, as well as an additional study with monkey and human. CFMQ was incubated with human and animal liver microsomes at 0.3 mg/mL at 37° C. for 30 or 60 minutes. Additional reference compounds were incubated as controls. Following incubation, samples were analyzed by HPLC-MS/MS.

[3] = Extrapolation of human oral dose by allometric scaling and pharmacokinetic simulation; settings: human equivalent dose of 0.8 mg/kg
Procedure: A pharmacokinetic extrapolation for a human oral dose was performed using allometric scaling of clearance and volume of distribution. The human pharmacokinetic values were extrapolated from in vivo mouse, rat, dog and monkey pharmacokinetic studies. […] This model was based on the assumption that all of the clearance pathways in the human were captured in the pre-clinical species.

[4] = female, Yucatan, minipig, plasma

clinical observations ([1]; mini-pig): no abnormal clinical observations
AUC(0-inf) [1, 4]: 11100 ng·h/mL
AUC(0-t) [1, 4]: 10600 ng·h/mL
half-life [1, 4]: 57 h
concentration at 4 hr ([1]; female, Yucatan, pig (miniature swine), plasma, 4.0 hr, read-out: Average Concentration of HGT3711): 1150 ng/mL
concentration at 8 hr ([1]; female, Yucatan, pig (miniature swine), plasma, 8.0 hr, read-out: Average Concentration of HGT3711): 284 ng/mL
concentration at 12 hr ([1]; female, Yucatan, pig (miniature swine), plasma, 12 hr, read-out: Average Concentration of HGT3711): 112 ng/mL
concentration at 24 hr ([1]; female, Yucatan, pig (miniature swine), plasma, 24 hr, read-out: Average Concentration of HGT3711): 14.2 ng/mL
concentration at 0 hr ([1]; female, Yucatan, pig (minipig), plasma, 0 hr, read-out: Average Concentration of HGT3711): 0 ng/mL
concentration at 0.25 hr ([1]; female, Yucatan, pig (minipig), plasma, 0.25 hr, read-out: Average Concentration of HGT3711): 80 ng/mL
concentration at 0.5 hr ([1]; female, Yucatan, pig (minipig), plasma, 0.5 hr, read-out: Average Concentration of HGT3711): 596 ng/mL
concentration at 1 hr ([1]; female, Yucatan, pig (minipig), plasma, 1.0 hr, read-out: Average Concentration of HGT3711): 1560 ng/mL
concentration at 2 hr ([1]; female, Yucatan, pig (minipig), plasma, 2.0 hr, read-out: Average Concentration of HGT3711): 2060 ng/mL
% Remaining [30 minutes] ([2]; 30 minutes): 7%
% Remaining [60 minutes] ([2]; 60 minutes): 3%
time plasma levels stay above the predicted efficacious levels ([3]; bioavailability 25%): greater than 5 hours
time plasma levels stay above the predicted efficacious levels ([3]; bioavailability 50%): > 10 h
time plasma levels stay above the predicted efficacious levels ([3]; bioavailability 75%): > 12 h
Structure (SMILES): Cc1cc(Cl)c(COc2cccc3c(-n4cc(F)cn4)cc(C)nc23)c(Cn2cccc(C#N)c2=O)n1 [CFMQ, 1-((4-Chloro-3-(((4-(4-fluoro-1H-pyrazol-1-yl)-2-methylquinolin-8-yl)oxy)methyl)-6-methylpyridin-2-yl)methyl)-2-oxo-1,2-dihydropyridine-3-carbonitrile]
Evans blue (EB) in the bladder (plasma extravasation; IV bolus 1.0 μg/kg): 0.7602 EB mg/kg tissue
Evans blue (EB) in the bladder (plasma extravasation; IV bolus 6 mg/kg): 0.0701 EB mg/kg tissue
inhibition of plasma extravasation vs vehicle (plasma extravasation; IV bolus 0.5, 1.0, and or 3.0 mg/kg, n=8): significant inhibition of plasma extravasation
inhibition of extravasation (plasma extravasation; IV bolus 1.0 and or 100 μg/kg): did not inhibit extravasation
ED50 (plasma extravasation; Mus musculus, intravenous, WT model, read-out: effective dose (ED50), plasma extravasation): 0.46 mg/kg
block of plasma extravasation (plasma extravasation; intravenous, high doses (500 μg/kg)): blocked plasma extravasation completely
